# Values of other authors as cited in patent US20060210645A1, “Pharmaceutically acceptable carrier for ophthalmic compositions” (priority 2005, published 2006).
# Legend:
# [1] = relative to methyltestosterone
# [2] = relative to methyltestosterone; remark: listed apart in the source
smiles,measurement,setting,value
"C[C@]12COC(=O)C[C@@H]1CC[C@@H]1[C@@H]2CC[C@@]2(C)[C@H]1CC[C@]2(C)O [oxandrolone, 17 alpha-methyl-17β-hydroxy-2-oxa-5 alpha-androstan-3-one]","androgenic activity, % of that of methyltestosterone",[1],24%
same,"anabolic activity, % of that of methyltestosterone",[2],322%
